Test results taken from the NIST ThermoML archive (doi:10.1021/je7003758).

Experiment: xn = mol fraction of the nth substance listed
Settings: 298.15 K, Liquid

ClCCCCCl [1,4-dichlorobutane] + CN1CCCC1=O
mass density [kg/m3]
Settings | x2 = 0.1039 | x2 = 0.2034 | x2 = 0.3036 | x2 = 0.402 | x2 = 0.5025 | x2 = 0.5968 | x2 = 0.7003 | x2 = 0.8008 | x2 = 0.8971
100 kPa | 1123.8 | 1114.2 | 1104.3 | 1094.4 | 1084 | 1073.9 | 1062.7 | 1051.4 | 1040.2
500 kPa | 1124.1 | 1114.6 | 1104.6 | 1094.7 | 1084.2 | 1074.2 | 1062.9 | 1051.6 | 1040.4
1000 kPa | 1124.5 | 1114.9 | 1104.9 | 1095 | 1084.5 | 1074.5 | 1063.2 | 1051.9 | 1040.7
1500 kPa | 1124.9 | 1115.2 | 1105.3 | 1095.3 | 1084.8 | 1074.8 | 1063.6 | 1052.2 | 1041
2000 kPa | 1125.2 | 1115.6 | 1105.7 | 1095.7 | 1085.2 | 1075.1 | 1063.8 | 1052.5 | 1041.3
2500 kPa | 1125.5 | 1115.9 | 1106 | 1096 | 1085.5 | 1075.4 | 1064.1 | 1052.8 | 1041.6
2900 kPa | – | – | 1106.3 | – | – | – | – | – | –
3000 kPa | 1125.9 | 1116.3 | – | 1096.3 | 1085.8 | 1075.7 | 1064.4 | 1053 | 1041.8
3500 kPa | 1126.3 | 1116.6 | 1106.6 | 1096.7 | 1086.1 | 1076 | 1064.7 | 1053.4 | 1042.1
4000 kPa | 1126.7 | 1117 | 1107 | 1097 | 1086.4 | 1076.4 | 1065 | 1053.6 | 1042.3
4500 kPa | 1127 | 1117.3 | 1107.4 | 1097.3 | 1086.8 | 1076.6 | 1065.3 | 1053.9 | 1042.7
4900 kPa | 1127.3 | – | – | – | – | 1076.9 | – | – | –
5000 kPa | – | 1117.7 | 1107.7 | 1097.6 | 1087.1 | – | 1065.6 | 1054.2 | 1042.9
5500 kPa | 1127.7 | 1118 | 1108 | 1098 | 1087.4 | 1077.2 | 1065.9 | 1054.4 | 1043.1
5900 kPa | 1128.1 | – | – | – | 1087.7 | – | – | – | –
6000 kPa | – | 1118.4 | 1108.3 | 1098.3 | – | 1077.6 | 1066.2 | 1054.8 | 1043.5
6500 kPa | 1128.4 | 1118.8 | 1108.7 | 1098.6 | 1088 | 1077.8 | 1066.5 | 1055 | 1043.7
7000 kPa | 1128.8 | 1119.1 | 1109 | 1099 | 1088.4 | 1078.2 | 1066.8 | 1055.3 | 1044
7400 kPa | – | – | – | – | – | – | – | – | 1044.2
7500 kPa | – | 1119.5 | 1109.4 | 1099.3 | 1088.6 | 1078.5 | 1067.1 | 1055.6 | –
7600 kPa | 1129.2 | – | – | – | – | – | – | – | –
7900 kPa | – | – | – | – | 1089 | – | – | – | –
8000 kPa | 1129.5 | 1119.8 | 1109.7 | 1099.6 | – | 1078.8 | 1067.4 | 1055.9 | 1044.5
8400 kPa | 1129.8 | – | – | – | – | – | – | – | –
8500 kPa | – | 1120.1 | 1110.1 | 1099.9 | 1089.3 | 1079.1 | 1067.6 | 1056.2 | 1044.8
8900 kPa | 1130.2 | – | – | – | – | – | – | – | –
9000 kPa | – | 1120.5 | 1110.4 | 1100.3 | 1089.6 | 1079.4 | 1068 | 1056.4 | 1045.1
9400 kPa | – | – | – | – | – | – | – | – | 1045.3
9500 kPa | 1130.6 | 1120.8 | 1110.7 | 1100.3 | 1089.9 | 1079.7 | 1068.2 | 1056.7 | –
10000 kPa | 1131 | 1121.3 | 1111.1 | 1101 | 1090.3 | 1080 | 1068.6 | 1057.1 | 1045.6
10500 kPa | 1131.4 | 1121.6 | 1111.4 | 1101.3 | 1090.6 | 1080.3 | 1068.9 | 1057.3 | 1045.9
11000 kPa | 1131.7 | 1122 | 1111.8 | 1101.6 | 1090.9 | 1080.6 | 1069.2 | 1057.6 | 1046.1
11500 kPa | 1132.1 | 1122.3 | 1112.1 | 1101.9 | 1091.2 | 1080.9 | 1069.4 | 1057.9 | 1046.4
11900 kPa | – | – | – | – | – | – | – | – | 1046.6
12000 kPa | 1132.5 | 1122.6 | 1112.4 | 1102.2 | 1091.6 | 1081.2 | 1069.7 | 1058.2 | –
12400 kPa | – | – | – | – | – | – | – | – | 1046.9
12500 kPa | 1132.8 | 1122.9 | 1112.8 | 1102.6 | 1091.9 | 1081.5 | 1070 | 1058.4 | –
12900 kPa | – | – | – | – | 1092.2 | – | – | – | –
13000 kPa | 1133.1 | 1123.3 | 1113.1 | 1102.9 | – | 1081.8 | 1070.3 | 1058.7 | 1047.2
13400 kPa | – | – | – | – | – | – | – | 1059 | –
13500 kPa | 1133.5 | 1123.6 | 1113.4 | 1103.2 | 1092.5 | 1082.1 | 1070.5 | – | 1047.4
13900 kPa | – | – | 1113.7 | – | – | – | – | – | –
14000 kPa | 1133.8 | 1124 | – | 1103.5 | 1092.8 | 1082.4 | 1070.9 | 1059.2 | 1047.7
14400 kPa | – | – | – | – | – | – | 1071.1 | 1059.5 | –
14500 kPa | 1134.2 | 1124.3 | 1114 | 1103.8 | 1093.1 | 1082.6 | – | – | 1048
14900 kPa | – | – | – | – | 1093.3 | – | – | – | –
15000 kPa | 1134.5 | 1124.7 | 1114.4 | 1104.1 | – | 1083 | 1071.5 | 1059.7 | 1048.3
15400 kPa | – | – | – | – | 1093.6 | – | – | – | –
15500 kPa | 1134.8 | 1125 | 1114.7 | 1104.4 | – | 1083.3 | 1071.7 | 1060 | 1048.6
15900 kPa | – | – | – | – | – | – | – | – | 1048.8
16000 kPa | 1135.2 | 1125.3 | 1115.1 | 1104.8 | 1094 | 1083.5 | 1072 | 1060.3 | –
16400 kPa | – | – | – | 1105 | – | – | – | – | –
16500 kPa | 1135.5 | 1125.6 | 1115.4 | – | 1094.2 | 1083.8 | 1072.2 | 1060.6 | 1049
16900 kPa | – | – | 1115.6 | – | – | – | – | – | –
17000 kPa | 1135.9 | 1126 | – | 1105.4 | 1094.5 | 1084.1 | 1072.5 | 1060.8 | 1049.3
17500 kPa | 1136.2 | 1126.3 | 1116 | 1105.7 | 1094.8 | 1084.4 | 1072.8 | 1061.1 | 1049.5
18000 kPa | 1136.5 | 1126.6 | 1116.3 | 1106 | 1095.1 | 1084.7 | 1073.1 | 1061.3 | 1049.8
18500 kPa | 1136.9 | 1126.9 | 1116.6 | 1106.2 | 1095.4 | 1085 | 1073.3 | 1061.6 | 1050.1
19000 kPa | 1137.3 | 1127.3 | 1117 | 1106.6 | 1095.8 | 1085.3 | 1073.7 | 1061.9 | 1050.3
19500 kPa | 1137.6 | 1127.6 | 1117.3 | 1106.9 | 1096 | 1085.6 | 1074 | 1062.2 | 1050.6
20000 kPa | 1138 | 1128 | 1117.7 | 1107.4 | 1096.5 | 1086 | 1074.5 | 1062.4 | 1050.9
